According to PMC7277448, “Discovery of Hordenine as a Potential Inhibitor of Pyruvate Dehydrogenase Kinase 3: Implication in Lung Cancer Therapy” (Biomedicines, 2020):
Where “and” joins values, the source holds several entries; their conditions need not be identical. Equal values may be shown once.

Columns and labels:
[1] = system: A549 cells; assay: MTT cell viability assay, A549; format: cell-based; settings: Homo sapiens, 48 h, 0–200 μM, read-out: IC50, growth inhibition of A549 cells
Experimental: (§1) Cell cultures of H1299 and A549 cells were respectively maintained in RPMI-1640 and F12K cell growth medium, while HEK293 cells were maintained in DMEM (having 10% heat-inactivated FBS and 1% antibiotic-antimycotic solution) in a humidified CO2 incubator (5% CO2, 37 °C). These lung cancer cell lines were selected based on previous reports related to PDK3 [49]. Hordenine was evaluated for cell growth inhibition potential using the MTT assay as described. Briefly, the selected cells were plated in a 96-well culture plate (6000–7000 cells/well), and after 24 h cells were incubated with hordenine (0–200 μM) for 48 h. Following 48 h incubation of cells with hordenine, 25 µL MTT (from 5 mg/mL stock) was added and incubated for 4–5 h at 37 °C in a CO2 incubator. The resultant formazan was dissolved in 100 µL of DMSO and the absorbance was measured at 570 nm using a multiplate ELISA reader (BioRad). The percentage of cell viabilities was estimated using absorbance data and plotted as a function of hordenine concentration. Respective DMSO treatment was taken as vehicle control and subtracted from corresponding hordenine treatment groups, whereas for anticancer studies paclitaxel has been taken as a positive control.

[2] = system: HEK293 cells; assay: MTT cytotoxicity assay, HEK293; format: cell-based, human; settings: 48 h, concentration range 0–200 μM
Experimental: as §1

[3] = biological target: T1, PDK3 (Homo sapiens, UniProt Q15120); assay: Isothermal titration calorimetry; format: binding; settings: ITC 25 °C
T1 construct: made in house
Experimental: ITC measurements were carried out at 25 °C on a VP-ITC microcalorimeter from MicroCal, Inc (GE, MicroCal, Northampton, MA, USA). The purified protein was extensively dialyzed and degassed before use to avoid the bubble problem. DMSO was added in an equal amount to the protein solution (1% v/v) to prevent signal stability problems during ITC measurements. The first injection was a false one (2 μL) and then successive injections of 10 μL followed by the initial false injection. The sample cell contained PDK3 while the syringe was filled with the hordenine. Data analysis was carried out using the attached MicroCal Origin 8.0. The values (Ka, ΔH, ΔS) were calculated after curve fitting as described in our previous communications.
Thermodynamic parameters associated with the interaction of hordenine to PDK3 were measured by ITC as described. […] Various studies report different values of thermodynamic parameters obtained from fluorescence spectroscopy and ITC and this is because ITC measures a global change in the thermodynamic properties while fluorescence spectroscopy takes into account only the local changes around the fluorophore (Trp214). In the upper panel, raw data with negative heat pulses is shown which confirms exothermic binding. Binding curves found after subtraction of dilution heat of both ligands and protein are depicted in the bottom section. The obtained ITC isotherm advocates the spontaneous binding of hordenine with PDK3. The results presented were obtained from four site model fitting and thermodynamic parameters obtained for this interaction are presented in Table 1.

[4] = biological target: T1, PDK3; assay: Enzyme inhibition assay (ATPase, malachite green); format: biochemical; settings: ATP 200 µM, PDK3 4 µM, 25 °C, 1 h; AAT Bioquest calculator
Experimental: Following our published protocols, an enzyme inhibition assay was carried out. Freshly prepared ATP (200 µM) was added to PDK3 (4 µM) and final reaction mixture of 100 μL was incubated at 25 °C for 1 h. Malachite green (200 μL) was further added to the reaction mixture to stop the reaction followed by incubation of samples at room temperature for 20–25 min for the development of color. From the final reaction mixture, 100 μL was transferred to a 96-well plate in triplicate to measure spectrophotometrically at 620 nm.
To further validate our fluorescence-based binding studies, an enzyme inhibition assay was carried out with increasing concentrations of hordenine to check the kinase inhibitory potential. The kinase activity was quantified and plotted as percent inhibition. The kinase activity of PDK3 alone was taken as 100% for reference. It is clear from Figure 5 that with an increasing concentration of hordenine (0–13.75 µM), there was a dose-dependent decrease in PDK3 activity.

[5] = biological target: T1, PDK3; assay: Fluorescence binding (quenching, modified Stern-Volmer); settings: PDK3 4 μM, modified Stern-Volmer equation; read-out: Binding constant (K) from fluorescence studies (converted)
Experimental: The binding affinity of ligands to PDK3 was analyzed by monitoring changes in the fluorescence emission intensity of protein [33]. Fluorescence measurements were carried out on the Jasco spectrofluorimeter (FP-6200, Japan). The experimental parameters were, λexc as 280 nm and λem in the range of 300–400 nm with slit width: 10 nm and medium sensitivity. All the measurements were carried out in triplicates and blank subtracted spectra were reported. The observed fluorescence values were corrected for the inner filter effect. Protein was titrated with an increasing concentration of ligands and each titration of protein. A decrease in the fluorescence intensity was mathematically evaluated using the modified Stern-Volmer equation [35] to estimate the binding parameters for hordenine-PDK3 interaction.
To measure the actual binding affinity of hordenine to PDK3, fluorescence binding studies were performed as described. […] The decrease in fluorescence intensity was mathematically analyzed using a double log relation (modified Stern−Volmer equation) to find the value of binding constant (K).

[6] = system: H1299 cells; assay: MTT cell viability assay, H1299; format: cell-based; settings: Homo sapiens, NCI-H1299, 48 h, 0–200 μM, read-out: IC50, growth inhibition of H1299 cells
Experimental: as §1

T1 sequence (Q15120 whole entry): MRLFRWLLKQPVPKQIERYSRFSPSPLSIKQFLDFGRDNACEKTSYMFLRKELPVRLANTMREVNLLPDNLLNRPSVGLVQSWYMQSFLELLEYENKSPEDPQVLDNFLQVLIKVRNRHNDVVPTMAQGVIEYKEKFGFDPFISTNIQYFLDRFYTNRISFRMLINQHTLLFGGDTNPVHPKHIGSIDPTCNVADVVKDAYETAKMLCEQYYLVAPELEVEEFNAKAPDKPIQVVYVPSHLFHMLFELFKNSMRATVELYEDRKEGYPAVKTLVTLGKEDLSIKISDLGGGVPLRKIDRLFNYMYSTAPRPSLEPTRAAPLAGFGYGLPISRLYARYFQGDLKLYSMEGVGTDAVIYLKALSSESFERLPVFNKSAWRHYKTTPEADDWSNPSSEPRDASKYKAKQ

In the case of `CN(C)CCc1ccc(O)cc1` [hordenine, Hordenine], the IC50 [1] is reported as 15 ± 2.13 µM, the “Growth inhibition / cytotoxicity on HEK293 cells” value [2] is reported as “did not inhibit the growth of HEK293 cells” and the Kd ([3]; 500 µM hordenine into 15 µM PDK3, four site model, site 1, read-out: Ka1 (Association Constant)) is reported as 51.3 µM. For the same compound, the “∆H1 (Enthalpy Change)” value ([3]; four site model, site 1) was “∆H1 = 4151 ± 1.2 × 10^3 cal/mol”, the “∆S1” value ([3]; four site model, site 1) was “∆S1 = 33.5 cal/mol/deg” and the “∆H2 (Enthalpy Change)” value ([3]; four site model, site 2) was “∆H2 = −5.11 × 10^4 ± 4.18 × 10^3 cal/mol”. The “∆S2” value ([3]; four site model, site 2) was “∆S2 = −149 cal/mol/deg”, the Kd ([3]; four site model, site 2, read-out: Ka2 (Association Constant)) was 10.8 µM and the “∆H3 (Enthalpy Change)” value ([3]; four site model, site 3) was “∆H3 = 3.75 × 10^4 ± 5.20 × 10^3 cal/mol”. The “∆S3” value ([3]; four site model, site 3) was “∆S3 = 147 cal/mol/deg”, the Kd ([3]; four site model, site 3, read-out: Ka3 (Association Constant)) was 19.6 µM and the “∆H4 (Enthalpy Change)” value ([3]; four site model, site 4) was “∆H4 = −2.33 × 10^5 ± 1.03 × 10^4 cal/mol”. The “∆S4” value ([3]; four site model, site 4) was “∆S4 = −767 cal/mol/deg”, the Kd ([3]; four site model, site 4 (printed Ka3), read-out: Ka3 (Association Constant), fourth line of the table) was 400 µM and the IC50 [4] was 5.4 µM. The Kd [5] was 1 µM and 2 µM and the IC50 [6] was 21.3 ± 1.99 µM.
